Laboratory results reported in patent US8802596B2, “Multi-functional ionic liquid compositions for overcoming polymorphism and imparting improved properties for active pharmaceutical, biological, nutritional, and energetic ingredients” (Board of Trustees of the University of Alabama, priority 2005, dated 2014).
Entries after “also recorded” stand apart in the source; their conditions may differ.

Experiments:
[1] = system: Swiss-Webster male mice; details: tail dipped 60 seconds in DMSO solution, 1 mM and 100 mM; 47.5° C. water bath; 15, 30, 60, 120 minutes; versus lidocaine hydrochloride
Description: The rat tail flick test is used to determine the local anesthetic ability of lidocaine docusate compared with lidocaine hydrochloride. The rat is immobilized in a restraining sock, so that the tail is only exposed. The tail is dipped into hot water and the number of times the rat flicks its tail is recorded. When the anesthetic is applied, the rat's tail should be numb therefore it will not feel the hot water and the number of tail flicks should decrease.
For this test Swiss-Webster male mice were used. They were habituated in a restraining sock 3 times during a 10 day period. A baseline tail flick was determined for each rat in 47.5° C. water bath. […] The number of tail flicks was determined at 15, 30, 60, and 120 minutes in the 47.5° C. water bath. […] Using the following equation, one can determine the % MPE at each time for the two compounds in question. % MPE=(TFi−BL)/(10−BL)*100 • TFi=latency to withdraw tail from hot water • BL=baseline withdrawal time without the drug

[2] = Thermal stability (thermalgravimetric analysis, TGA); format: physicochemical; details: for Tonset / Tonset5%: TGA; for Td - temperature of total decomposition / Tonset - onset temperature of the decomposition / Tonset(5%) - onset temperature for 5% of the decomposition: Table 2, no unit in table (temperature is in ° C.)
[3] = system: S. aureus, E. faecium, E. coli, C. albicans; assay: Average value of MIC / MBC over the four cultures; format: cell-based; details: for MBC Average value / MIC Average value: average over S. aureus, E. faecium, E. coli, C. albicans; for Biological activity compared with the starting quaternary ammonium chloride (average MIC and MBC): in words, refers to Tables 3 and 4
Description: (§1) In the biological activity measurements (tests) following bacteria were used: Staphylococcus aureus ATCC 6538, Enterococcus faecium ATCC 49474, Escherichia coli ATCC 25922 and fungi Candida albicans ATCC 10231.
(§2) Microbiological activity tests were performed using dissolution method. Determinations were performed on liquid base (background): Mueller-Hinton for bacteria and Sabouraud for fungi. Starting solution had the concentration of 1 g/cm^3. From this solution, all other solutions (lower concentrations) were prepared. To those solutions, 0.1 cm^3 of the suspensions of standard microorganisms at a concentration of 10^6 cfu cm^3 were added. The samples with bacteria were incubated for 24 h at the temperature of 37° C., and with fungi there were incubated for 48 h at the temperature of 22° C. After incubation time the MIC, Minimal Inhibitory Concentration, minimal concentration of the investigated compound at which the growth of the microorganisms is stopped (visually), was specified (recorded) for every sample. To define the MBC, Minimal Bactericidal Concentration, additionally to each solution the 10^−6 cm^3 of the inactivator was added on the base (background) (0.3% lecithin, 3% polysorbate 80 and 0.1% L-cysteine). The samples with bacteria were incubated for 48 h in the temperature of 37° C. The fungi samples were incubated for 5 days at the temperature of 22° C. MBC values were defined (specified) as the concentration at which the level of the reduction of the microorganisms was not lower than 99.99%.

[4] = system: Enterococcus faecium ATCC 49474; assay: Microbiological activity test (dilution method), MIC and MBC; format: cell-based
Description: as §1, §2

[5] = system: Escherichia coli ATCC 25922; assay: as above; format: cell-based
Description: as §1, §2

[6] = system: Staphylococcus aureus ATCC 6538; assay: as above; format: cell-based
Description: as §1, §2

[7] = system: Candida albicans ATCC 10231; assay: as above; format: cell-based
Description: as §1, §2

[8] = background statement, in words; cited from earlier work
[9] = system: proteins in the body; details: cited from earlier work
[10] = in words
[11] = E. faecium, incubated 24 h at 37° C., Mueller-Hinton
[12] = E. faecium, reduction not lower than 99.99%, 48 h at 37° C.
[13] = E. coli, incubated 24 h at 37° C., Mueller-Hinton
[14] = E. coli, reduction not lower than 99.99%, 48 h at 37° C.
[15] = S. aureus, incubated 24 h at 37° C., Mueller-Hinton
[16] = S. aureus, reduction not lower than 99.99%, 48 h at 37° C.
[17] = C. albicans, incubated 48 h at 22° C., Sabouraud
[18] = C. albicans, reduction not lower than 99.99%, 5 days at 22° C.

Molecule: CCCCC(CC)COC(=O)CC(C(=O)OCC(CC)CCCC)S(=O)(=O)O.CCN(CC)CC(=O)Nc1c(C)cccc1C (stereo not drawn) [lidocaine docusate]
- Anesthetic ability (tail flick, % MPE graphs) [1]: higher and longer anesthetic ability than lidocaine hydrochloride

Molecule: CC(=O)NS(=O)(=O)c1ccc(N)cc1.CCCCCCCCCCCCCCCC[n+]1ccccc1 [Hexadecylpyridinium Sulfacetamide, hexadecylpyridinium sulfacetamide]
- Tonset [2]: 219 °C
- Tonset5% [2]: 211 °C

Molecule: CC1=CC([O-])=NS(=O)(=O)O1.CCCCCCCCCC[N+](C)(C)CCCCCCCCCC [[DDA][Ace], didecyldimethylammonium acesulfamate]
- Td - temperature of total decomposition [2]: 245
- Tonset - onset temperature of the decomposition [2]: 201
- Tonset(5%) - onset temperature for 5% of the decomposition [2]: 182
- MBC Average value [3]: 31.4 ppm
- MIC Average value [3]: 12 ppm
- Biological activity compared with the starting quaternary ammonium chloride (average MIC and MBC) [3]: only slight difference in the biological activity
- MIC [4, 11]: 8 ppm
- MBC [4, 12]: 31.2 ppm
- MIC [5, 13]: 16 ppm
- MBC [5, 14]: 62.5 ppm
- MIC [6, 15]: 8 ppm
- MBC [6, 16]: 16 ppm
- MIC [7, 17]: 16 ppm
- MBC [7, 18]: 16 ppm

Molecule: CCCCCCCCCC[N+](C)(C)CCCCCCCCCC.[Cl-] [DDAC, didecyldimethylammonium chloride, reference compound]
- MBC ([3]; read-out: MBC Average value): 27.4 µg/mL
- MIC ([3]; read-out: MIC Average value): 5.5 µg/mL
- MIC ([4]; Enterococcus faecium, ATCC49474, 24 h): 4 µg/mL
- MBC ([4]; Enterococcus faecium, ATCC49474, 48 h): 31.2 µg/mL
- MIC ([5]; Escherichia coli, ATCC25922, 24 h): 8 µg/mL
- MBC ([5]; Escherichia coli, ATCC25922, 48 h): 31.2 µg/mL
- MIC ([6]; Staphylococcus aureus, ATCC6538, 24 h): 2 µg/mL
- MBC ([6]; Staphylococcus aureus, ATCC6538, 48 h): 31.2 µg/mL
- MIC ([7]; Candida albicans, ATCC10231, 48 h): 8 µg/mL
- MBC ([7]; Candida albicans, ATCC10231, 120 h): 16 µg/mL

Molecule: CCCCCCCCCCCCCCCC[n+]1ccccc1.CCCCCCOC(=O)CC(C(=O)OCCCCCC)S(=O)(=O)[O-] (stereo not drawn) [Hexadecylpyridinium Colawet MA-80]
- Tonset [2]: 262 °C
- Tonset5% [2]: 248 °C

Molecule: CCCCCCCCCC[N+](C)(C)CCCCCCCCCC.CCCCCCOC(=O)CC(C(=O)OCCCCCC)S(=O)(=O)O (stereo not drawn) [Didecyldimethylammonium Colawet MA-80]
- Tonset [2]: 226 °C
- Tonset5% [2]: 218 °C

Molecule: CCCCCCCCCCCC[N+](C)(C)Cc1ccccc1.O=C1[N-]S(=O)(=O)c2ccccc21 [[BA][Sac], benzalkonium saccharinate]
- Td - temperature of total decomposition [2]: 227
- Tonset - onset temperature of the decomposition [2]: 206
- Tonset(5%) - onset temperature for 5% of the decomposition [2]: 176
- MBC Average value [3]: 35.2 ppm
- MIC Average value [3]: 11 ppm
- MIC [4, 11]: 8 ppm
- MBC [4, 12]: 16 ppm
- MIC [5, 13]: 16 ppm
- MBC [5, 14]: 62.5 ppm
- MIC [6, 15]: 4 ppm
- MBC [6, 16]: 31.2 ppm
- MIC [7, 17]: 16 ppm
- MBC [7, 18]: 31.2 ppm

Molecule: CCCCCCCCCCCCOC[N+](C)(C)CCOC(C)=O.O=C([O-])c1ccccc1 [(2-acetoxyethyl)dodecyloxymethyldimethylammonium Benzoate]
- Tonset [2]: 122 °C

Molecule: CCCCCCCOC[N+](C)(C)CCOC(C)=O.O=C([O-])c1ccccc1 [(2-acetoxyethyl)heptyloxymethyldimethylammonium benzoate]
- Tonset [2]: 120 °C

Molecule: CCCCCCCCCCCOC[N+](C)(C)CCO.O=C([O-])c1ccccc1 [(2-hydroxyethyl)dimethylundecyloxymethylammonium benzoate]
- Tonset [2]: 127 °C

Molecule: CCC(C)n1ncn(-c2ccc(N3CCN(c4ccc(OCC5COC(Cn6cncn6)(c6ccc(Cl)cc6Cl)O5)cc4)CC3)cc2)c1=O (stereo not drawn) [Itraconazole, itraconazole]
- Solubility in organic solvents [8]: slightly soluble in alcohol; also recorded: freely soluble in dichloromethane
- Solubility in water [8]: insoluble in water
- Drug bound to proteins in the body [9]: 99.8%

Molecule: CCCCCCCCCC[N+](C)(C)CCCCCCCCCC.Cc1ccc(S(=O)(=O)[O-])cc1 [didecyldimethylammonium p-toluenesulfonate]
- Solubility / miscibility in water [10]: insoluble in water and hexane
- Solubility in organic solvents / other media [10]: soluble in chloroform, acetone, DMSO

Molecule: didecyldimethylammonium N-[4-[[(2-amino-1,4-dihydro-4-oxo-6-pteridinyl)methyl]amino]benzoyl]-L-glutamate
- Tonset [2]: 201 °C
- Tonset5% [2]: 153 °C

Molecule: CC([O-])=NS(=O)(=O)c1ccc(N)cc1.CCCCCCCCCC[N+](C)(C)CCCCCCCCCC [Didecyldimethylammonium Sulfacetamide, didecyldimethylammonium (DDA) sulfacetamide]
- Tonset [2]: 200.2 °C
- Tonset5% [2]: 183.3 °C

Molecule: CCCCCCCCCC[N+](C)(C)CCCCCCCCCC.CCN1CCN(C(=O)NC(C(=O)NC2C(=O)N3C2SC(C)(C)C3C(=O)[O-])c2ccccc2)C(=O)C1=O (stereo not drawn) [Didecyldimethylammonium Piperacillin]
- Tonset [2]: 205 °C
- Tonset5% [2]: 181 °C

Molecule: CCCCCCCCCC[N+](C)(C)CCCCCCCCCC.O=C1[N-]S(=O)(=O)c2ccccc21 [[DDA][Sac], Didecyldimethylammonium Saccharinate]
- Td - temperature of total decomposition [2]: 221
- Tonset - onset temperature of the decomposition [2]: 211
- Tonset(5%) - onset temperature for 5% of the decomposition [2]: 184
- MBC Average value [3]: 27.6 ppm
- MIC Average value [3]: 11 ppm
- Biological activity compared with the starting quaternary ammonium chloride (average MIC and MBC) [3]: high in comparison with starting material
- MIC [4, 11]: 8 ppm
- MBC [4, 12]: 16 ppm
- MIC [5, 13]: 16 ppm
- MBC [5, 14]: 16 ppm
- MIC [6, 15]: 4 ppm
- MBC [6, 16]: 62.5 ppm
- MIC [7, 17]: 16 ppm
- MBC [7, 18]: 16 ppm

Molecule: CC1=CC(=O)[N-]S(=O)(=O)O1.CCCCCCCCCCCC[N+](C)(C)Cc1ccccc1 [[BA][Ace], benzalkonium acesulfamate]
- Tonset(5%) - onset temperature for 5% of the decomposition [2]: 186
- MBC Average value [3]: 54.7 ppm
- MIC Average value [3]: 14.8 ppm
- Biological activity compared with the starting quaternary ammonium chloride (average MIC and MBC) [3]: high activity of the salt, slightly lower than that of the starting benzalkonium chloride
- MIC [4, 11]: 8 ppm
- MBC [4, 12]: 31.2 ppm
- MIC [5, 13]: 31.2 ppm
- MBC [5, 14]: 125 ppm
- MIC [6, 15]: 4 ppm
- MBC [6, 16]: 31.2 ppm
- MIC [7, 17]: 16 ppm
- MBC [7, 18]: 31.2 ppm
